From US20060287247A1, “Halogen-substituted thienyl compounds” (priority 2001, published 2006)
Converted amounts (≈) assume the structure as drawn. Where two headings read alike, the source gives them in different places.

What was measured:
[1] = system: S. aureus ATCC 29213; assay: NCCLS broth microdilution MIC; type: cell-based, Staphylococcus aureus; conditions: for MIC: Staphylococcus aureus
Method: (§1) Compounds according to this invention were screened for their in vitro activities against selected species of bacteria and fungi. The minimal inhibition concentration (MIC) of these compounds was determined using the National Committee for Clinical Laboratory Standards (NCCLS) broth microdilution assay in microtiter plates, as set forth in: (1) the guidelines of the National Committee for Clinical Laboratory Standards (NCCLS) Document M7-A4 (NCCLS, 1997); (2) the guidelines of the National Committee for Clinical Laboratory Standards (NCCLS) Document M11-A4 (NCCLS, 1997); and (3) the guidelines and reference method of the National Committee for Clinical Laboratory Standards (NCCLS) Document M27-T (NCCLS, 1995). For antifungal essays, the method recommended in Murray, P R., 1995 Manual of Clinical Microbiology (ASM Press, Washington, D.C.), was employed. […]

[2] = system: C. albicans ATCC 38247; assay: NCCLS broth microdilution MIC (antifungal); type: cell-based; conditions: for MIC: Candida albicans
Method: as §1

[3] = system: E. faecalis ATCC 29212; assay: NCCLS broth microdilution MIC; type: cell-based, Enterococcus faecalis; conditions: for MIC: Enterococcus faecalis
Method: as §1

[4] = system: B. cereus ATCC 11778; assay: NCCLS broth microdilution MIC; type: cell-based, Bacillus cereus; conditions: for MIC: Bacillus cereus
Method: as §1

[5] = system: E. coli ATCC 25922; assay: NCCLS broth microdilution MIC; type: cell-based; conditions: for MIC: Escherichia coli
Method: as §1

[6] = system: S. pneumoniae ATCC 49619; assay: NCCLS broth microdilution MIC; type: cell-based, Streptococcus pneumoniae; conditions: for MIC: Streptococcus pneumoniae
Method: as §1

[7] = ATCC29213, read-out: Minimum Inhibitory Concentration (MIC)
[8] = ATCC29212, read-out: Minimum Inhibitory Concentration (MIC)
[9] = ATCC11778, read-out: Minimum Inhibitory Concentration (MIC)
[10] = ATCC25922, read-out: Minimum Inhibitory Concentration (MIC)
[11] = ATCC49619, read-out: Minimum Inhibitory Concentration (MIC)
[12] = ATCC29212, B = E. faecalis ATCC 29212, read-out: Minimum Inhibitory Concentration (MIC)
[13] = ATCC11778, C = B. cereus ATCC 11778, read-out: Minimum Inhibitory Concentration (MIC)
[14] = ATCC25922, D = E. coli ATCC 25922, read-out: Minimum Inhibitory Concentration (MIC)
[15] = ATCC49619, F = S. pneumoniae ATCC 49619, read-out: Minimum Inhibitory Concentration (MIC)

| Compound | Minimum Inhibitory Concentration (MIC) ([1]; A = S. aureus ATCC 29213) | Minimum Inhibitory Concentration (MIC) ([2]; E = C. albicans ATCC 38247) | Minimum Inhibitory Concentration (MIC) ([3]; B = E. faecalis ATCC 29212) | Minimum Inhibitory Concentration (MIC) ([6]; F = S. pneumoniae ATCC 49619) | further results |
| --- | --- | --- | --- | --- | --- |
| Cn1cc(NC(=O)c2cc(NC(=O)c3cc(NC=O)cn3C)cn2C)cc1C(=O)NCCC(=N)N [Distamycin, distamycin, reference compound] |  |  |  |  | MIC [1, 7]: 12 to 32 µg/mL (≈ 24.9 to 66.5 µM); MIC ([2]; ATCC38247, read-out: Minimum Inhibitory Concentration (MIC)): > 32 µg/mL; MIC [3, 8]: 12 to 32 µg/mL (≈ 24.9 to 66.5 µM); MIC [4, 9]: 4 to 12 µg/mL (≈ 8.31 to 24.9 µM); MIC [5, 10]: > 32 µg/mL; MIC [6, 11]: 12 to 32 µg/mL (≈ 24.9 to 66.5 µM) |
| CN(C)CCCNC(=O)CCNC(=O)c1cc(NC(=O)c2cc(NC(=O)CCNC(=O)c3cc(NC(=O)c4cc(NC(=O)c5sc(Br)c(Br)c5Cl)cn4C)cn3C)cn2C)cn1C [Id-26] | >32 µg/mL | >32 µg/mL | >32 µg/mL | + (+ = MIC from 12 to 32, inclusive) |  |
| CN(C)CCCNC(=O)CCNC(=O)c1cc(NC(=O)c2cc(NC(=O)CCNC(=O)c3cc(NC(=O)c4cscc4Cl)cn3C)cn2C)cn1C [Id-28] | +++ (+++ = MIC ≦4) | >32 µg/mL | + (+ = MIC from 12 to 32, inclusive) | +++ (+++ = MIC ≦4) |  |
| CN(C)CCCNC(=O)CCNC(=O)c1cc(NC(=O)c2cc(NC(=O)CCNC(=O)c3cc(NC(=O)c4ccc(Cl)s4)cn3C)cn2C)cn1C [Id-29] | >32 µg/mL | >32 µg/mL | >32 µg/mL | >32 µg/mL |  |
| Cn1cc(NC(=O)c2cc(NC(=O)c3cc(NC(=O)c4sccc4Br)cn3C)cn2C)cc1C(=O)NCCN1CCOCC1 [Ie-2] | +++ (+++ = MIC ≦4) | >32 µg/mL | +++ (+++ = MIC ≦4) | +++ (+++ = MIC ≦4) |  |
| Cn1cc(NC(=O)c2cc(NC(=O)c3cc(NC(=O)c4cc(Br)cs4)cn3C)cn2C)cc1C(=O)NCCN1CCOCC1 [Ie-3] | ++ (++ = MIC between 4 and 12) | >32 µg/mL | >32 µg/mL | +++ (+++ = MIC ≦4) |  |
| Cn1cc(NC(=O)c2cc(NC(=O)c3cc(NC(=O)c4cc(NC(=O)c5sccc5Cl)cn4C)cn3C)cn2C)cc1C(=O)NCCN1CCOCC1 [Ie-12] |  | >32 µg/mL | +++ (+++ = MIC ≦4) | +++ (+++ = MIC ≦4) | Minimum Inhibitory Concentration (MIC) ([4]; C = B. cereus ATCC 11778): +++ (+++ = MIC ≦4); Minimum Inhibitory Concentration (MIC) ([5]; D = E. coli ATCC 25922): >32 µg/mL |
| Cn1cc(NC(=O)c2cc(NC(=O)c3cc(NC(=O)c4sccc4Cl)cn3C)cn2C)cc1C(=O)NCCN1CCC(F)CC1 [Ie-13] |  | >32 µg/mL | +++ (+++ = MIC ≦4) | +++ (+++ = MIC ≦4) | Minimum Inhibitory Concentration (MIC) ([4]; C = B. cereus ATCC 11778): +++ (+++ = MIC ≦4); Minimum Inhibitory Concentration (MIC) ([5]; D = E. coli ATCC 25922): >32 µg/mL |
| Cn1cc(NC(=O)c2cc(NC(=O)c3cc(NC(=O)c4scc(Br)c4Cl)cn3C)cn2C)cc1C(=O)NCCN1CCSCC1 [Ie-14] |  | >32 µg/mL | +++ (+++ = MIC ≦4) | +++ (+++ = MIC ≦4) | Minimum Inhibitory Concentration (MIC) ([4]; C = B. cereus ATCC 11778): +++ (+++ = MIC ≦4); Minimum Inhibitory Concentration (MIC) ([5]; D = E. coli ATCC 25922): >32 µg/mL |
| Cn1cc(NC(=O)c2cc(NC(=O)c3cc(NC(=O)c4scc(Br)c4Cl)cn3C)cn2C)cc1C(=O)NCCN1CCCCC1 [Ie-15] |  | + (+ = MIC from 12 to 32, inclusive) | +++ (+++ = MIC ≦4) | +++ (+++ = MIC ≦4) | Minimum Inhibitory Concentration (MIC) ([4]; C = B. cereus ATCC 11778): +++ (+++ = MIC ≦4); Minimum Inhibitory Concentration (MIC) ([5]; D = E. coli ATCC 25922): + (+ = MIC from 12 to 32, inclusive) |
| Cn1cc(NC(=O)c2cc(NC(=O)c3cc(NC(=O)c4sccc4Cl)cs3)cn2C)cc1C(=O)NCCN1CCOCC1 [Ig-1] | +++ (+++ = MIC ≦4) | >32 µg/mL | +++ (+++ = MIC ≦4) | ++ (++ = MIC between 4 and 12) |  |
| Cn1cc(NC(=O)c2cc(NC(=O)c3cc(NC(=O)c4sccc4Cl)cn3CCCO)cn2C)cc1C(=O)NCCC(=O)NCCN1CCOCC1 [Ig-2] | >32 µg/mL | >32 µg/mL | >32 µg/mL | >32 µg/mL |  |
| CC(C)S(=O)(=O)c1csc(C(=O)Nc2csc(C(=O)Nc3cc(C(=O)Nc4cc(C(=O)NCCN5CCOCC5)n(C)c4)n(C)c3)c2)c1Cl [Ig-4] | +++ (+++ = MIC ≦4) | >32 µg/mL | +++ (+++ = MIC ≦4) | +++ (+++ = MIC ≦4) |  |
| Cn1cc(NC(=O)c2cc(NC(=O)c3cc(NC(=O)c4sccc4F)cs3)cn2C)cc1C(=O)NCCN1CCOCC1 [Ig-5] | +++ (+++ = MIC ≦4) | >32 µg/mL | +++ (+++ = MIC ≦4) | +++ (+++ = MIC ≦4) |  |
| Cn1cc(NC(=O)c2cc(NC(=O)c3nc(NC(=O)c4scc(Br)c4Cl)cn3C)cn2C)cc1C(=O)NCCN1CCSCC1 [Ig-10] |  | >32 µg/mL | +++ (+++ = MIC ≦4) | +++ (+++ = MIC ≦4) | Minimum Inhibitory Concentration (MIC) ([4]; C = B. cereus ATCC 11778): +++ (+++ = MIC ≦4); Minimum Inhibitory Concentration (MIC) ([5]; D = E. coli ATCC 25922): >32 µg/mL |
| Cn1cc(NC(=O)c2cc(NC(=O)c3ccc(NC(=O)c4nc(NC(=O)c5sccc5Cl)cn4C)cc3)cn2C)cc1C(=O)NCCN1CCC(F)(F)CC1 [Ih-2] |  |  |  |  | MIC ([2]; ATCC38247, E = C. albicans ATCC 38247, read-out: Minimum Inhibitory Concentration (MIC)): > 32 µg/mL; MIC [3, 12]: < 4 µg/mL; MIC [4, 13]: > 32 µg/mL; MIC [5, 14]: > 32 µg/mL; MIC [6, 15]: < 4 µg/mL |
| Cn1cc(NC(=O)c2cc(NC(=O)CNC(=N)N)cn2C)cc1C(=O)NCCC(=N)N [Netropsin, netropsin, reference compound] |  |  |  |  | MIC [1, 7]: < 4 µg/mL; MIC [3, 8]: < 4 µg/mL; MIC [4, 9]: < 4 µg/mL; MIC [5, 10]: < 4 µg/mL; MIC [6, 11]: < 4 µg/mL |
| CC1COc2c(N3CCN(C)CC3)c(F)cc3c(=O)c(C(=O)O)cn1c23 (stereo not shown) [Ofloxacin, reference compound] |  |  |  |  | MIC ([1]; ATCC29213, A = S. aureus ATCC 29213, read-out: Minimum Inhibitory Concentration (MIC)): < 4 µg/mL; MIC [3, 12]: 4 to 12 µg/mL (≈ 11.1 to 33.2 µM); MIC [4, 13]: < 4 µg/mL; MIC [5, 14]: < 4 µg/mL; MIC [6, 15]: < 4 µg/mL |
